Measured values: PubChem BioAssay AID256 (DTP/NCI, 2004)
Values joined by “and” are separate entries in the source; they are usually repeats but may differ in a detail not shown here. Equal values may be shown once. Inconclusive results and toxic doses are left out.

System: CD2F1 mice, L1210 leukemia ip, survival T/C
Assay: NCI In Vivo Anticancer Drug Screen. Data for tumor model L1210 Leukemia (intraperitoneal) in CD2F1 (CDF1) mice
Conditions: higher = longer survival
Outline: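 Antitumor effect is scored in animals hosting a serially transplanted tumor. Values compare compound-dosed animals against vehicle-only controls as a simple quotient.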

Structure (SMILES): CO[C@@]12[C@H](COC(N)=O)C3=C(C(=O)C(C)=C(N)C3=O)N1C[C@@H]1N[C@@H]12
- T/C (endpoint: mean survival time, dose: 0.25 mg/kg/injection, schedule: Q01DX009 (ip), vehicle: saline): 118 % of control and 121 % of control
- T/C (endpoint: mean survival time, dose: 0.38 mg/kg/injection, schedule: Q01DX009 (ip), vehicle: water): 103 % of control
- T/C (endpoint: mean survival time, dose: 0.4 mg/kg/injection, schedule: Q04DX003 (ip), vehicle: water): 111 % of control
- T/C (endpoint: mean survival time, dose: 0.45 mg/kg/injection, schedule: Q01DX007 (ip), vehicle: acetone): 117 % of control
- T/C (endpoint: mean survival time, dose: 0.5 mg/kg/injection, schedule: Q01DX009 (ip), vehicle: water): 113 % of control
- T/C (endpoint: mean survival time, dose: 0.6 mg/kg/injection, schedule: Q01DX001 (ip), vehicle: carboxymethylcellulose (CMC)): 111 % of control
- T/C (endpoint: mean survival time, dose: 0.65 mg/kg/injection, schedule: Q04DX003 (ip), vehicle: water): 111 % of control
- T/C (endpoint: mean survival time, dose: 0.68 mg/kg/injection, schedule: Q01DX007 (ip), vehicle: acetone): 121 % of control
- T/C (endpoint: mean survival time, dose: 0.68 mg/kg/injection, schedule: Q03DX004 (ip), vehicle: acetone): 119 % of control
- T/C (endpoint: mean survival time, dose: 0.75 mg/kg/injection, schedule: Q01DX005 (ip), vehicle: clinical formulation): 120 % of control
- T/C (endpoint: mean survival time, dose: 0.75 mg/kg/injection, schedule: Q01DX009 (ip), vehicle: water): 104 % of control
- T/C (endpoint: mean survival time, dose: 0.87 mg/kg/injection, schedule: Q01DX001 (ip), vehicle: acetone): 110 % of control
- T/C (endpoint: mean survival time, dose: 1.0 mg/kg/injection, schedule: Q01DX009 (ip), vehicle: water): 115 % of control
- T/C (endpoint: mean survival time, dose: 1.0 mg/kg/injection, schedule: Q04DX003 (ip), vehicle: saline): 116 % of control
- T/C (endpoint: mean survival time, dose: 1.1 mg/kg/injection, schedule: Q04DX003 (ip), vehicle: water): 119 % of control
- T/C (endpoint: mean survival time, dose: 1.2 mg/kg/injection, schedule: Q01DX001 (ip), vehicle: carboxymethylcellulose (CMC)): 116 % of control
- T/C (endpoint: mean survival time, dose: 1.5 mg/kg/injection, schedule: Q01DX001 (ip), vehicle: saline): 105 % of control
- T/C (endpoint: mean survival time, dose: 1.5 mg/kg/injection, schedule: Q01DX005 (ip), vehicle: clinical formulation): 151 % of control
- T/C (endpoint: mean survival time, dose: 1.55 mg/kg/injection, schedule: Q02DX005 (ip), vehicle: saline): 119 % of control
- T/C (endpoint: mean survival time, dose: 1.55 mg/kg/injection, schedule: Q03DX004 (ip), vehicle: saline): 116 % of control
- T/C (endpoint: mean survival time, dose: 1.55 mg/kg/injection, schedule: Q04DX003 (ip), vehicle: saline): 114 % of control
- T/C (endpoint: mean survival time, dose: 1.55 mg/kg/injection, schedule: Q08DX002 (ip), vehicle: saline): 104 % of control
- T/C (endpoint: mean survival time, dose: 1.75 mg/kg/injection, schedule: Q01DX001 (ip), vehicle: carboxymethylcellulose (CMC)): 110 % of control
- T/C (endpoint: mean survival time, dose: 1.75 mg/kg/injection, schedule: Q01DX001 (ip), vehicle: saline): 120 % of control
- T/C (endpoint: mean survival time, dose: 2.0 mg/kg/injection, schedule: Q01DX009 (ip), vehicle: water): 107 % of control
- T/C (endpoint: mean survival time, dose: 2.0 mg/kg/injection, schedule: Q04DX003 (ip), vehicle: saline): 119 % of control
- T/C (endpoint: mean survival time, dose: 2.3 mg/kg/injection, schedule: Q01DX001 (ip), vehicle: acetone): 150 % of control
- T/C (endpoint: mean survival time, dose: 2.3 mg/kg/injection, schedule: Q01DX001 (ip), vehicle: carboxymethylcellulose (CMC)): 118 % of control and 111 % of control
- T/C (endpoint: mean survival time, dose: 2.33 mg/kg/injection, schedule: Q02DX005 (ip), vehicle: saline): 119 % of control
- T/C (endpoint: mean survival time, dose: 2.33 mg/kg/injection, schedule: Q03DX004 (ip), vehicle: saline): 123 % of control
- T/C (endpoint: mean survival time, dose: 2.33 mg/kg/injection, schedule: Q04DX003 (ip), vehicle: saline): 121 % of control
- T/C (endpoint: mean survival time, dose: 2.33 mg/kg/injection, schedule: Q08DX002 (ip), vehicle: saline): 111 % of control
- T/C (endpoint: mean survival time, dose: 2.9 mg/kg/injection, schedule: Q01DX001 (ip), vehicle: saline): 124 % of control
- T/C (endpoint: mean survival time, dose: 3.0 mg/kg/injection, schedule: Q01DX001 (ip), vehicle: saline): 124 % of control
- T/C (endpoint: mean survival time, dose: 3.0 mg/kg/injection, schedule: Q01DX005 (ip), vehicle: clinical formulation): 113 % of control and 98 % of control
- T/C (endpoint: mean survival time, dose: 3.0 mg/kg/injection, schedule: Q01DX009 (ip), vehicle: water): 101 % of control and 108 % of control
- T/C (endpoint: mean survival time, dose: 3.0 mg/kg/injection, schedule: Q04DX003 (ip), vehicle: saline): 170 % of control
- T/C (endpoint: mean survival time, dose: 3.5 mg/kg/injection, schedule: Q01DX001 (ip), vehicle: acetone): 156 % of control
- T/C (endpoint: mean survival time, dose: 3.5 mg/kg/injection, schedule: Q01DX001 (ip), vehicle: carboxymethylcellulose (CMC)): 155 % of control
- T/C (endpoint: mean survival time, dose: 3.5 mg/kg/injection, schedule: Q04DX003 (ip), vehicle: saline): 123 % of control
- T/C (endpoint: mean survival time, dose: 3.5 mg/kg/injection, schedule: Q08DX002 (ip), vehicle: saline): 121 % of control
- T/C (endpoint: mean survival time, dose: 4.5 mg/kg/injection, schedule: Q01DX001 (ip), vehicle: saline): 108 % of control
- T/C (endpoint: mean survival time, dose: 4.7 mg/kg/injection, schedule: Q01DX001 (ip), vehicle: saline): 122 % of control
- T/C (endpoint: mean survival time, dose: 5.0 mg/kg/injection, schedule: Q04DX003 (ip), vehicle: water): 150 % of control
- T/C (endpoint: mean survival time, dose: 5.25 mg/kg/injection, schedule: Q01DX001 (ip), vehicle: carboxymethylcellulose (CMC)): 176 % of control
- T/C (endpoint: mean survival time, dose: 5.25 mg/kg/injection, schedule: Q01DX004 (ip), vehicle: saline): 152 % of control
- T/C (endpoint: mean survival time, dose: 5.25 mg/kg/injection, schedule: Q01DX005 (ip), vehicle: saline): 165 % of control
- T/C (endpoint: mean survival time, dose: 7.0 mg/kg/injection, schedule: Q01DX003 (ip), vehicle: saline): 150 % of control
- T/C (endpoint: mean survival time, dose: 7.0 mg/kg/injection, schedule: Q04DX003 (ip), vehicle: saline): 152 % of control
- T/C (endpoint: mean survival time, dose: 8.3 mg/kg/injection, schedule: Q04DX003 (ip), vehicle: water): 119 % of control
- T/C (endpoint: mean survival time, dose: 10.5 mg/kg/injection, schedule: Q01DX001 (ip), vehicle: carboxymethylcellulose (CMC)): 114 % of control
- T/C (endpoint: mean survival time, dose: 12.0 mg/kg/injection, schedule: Q01DX001 (ip), vehicle: saline): 112 % of control
- T/C (endpoint: median survival time, dose: 0.1 mg/kg/injection, schedule: Q01DX009 (ip), vehicle: saline): 192 % of control
- T/C (endpoint: median survival time, dose: 0.1 mg/kg/injection, schedule: Q04DX003 (ip), vehicle: saline): 108 % of control
- T/C (endpoint: median survival time, dose: 0.12 mg/kg/injection, schedule: Q01DX009 (ip), vehicle: Klucel (hydroxypropylcellulose) (HPC)): 102 % of control
- T/C (endpoint: median survival time, dose: 0.2 mg/kg/injection, schedule: Q01DX009 (ip), vehicle: saline): 113 % of control
- T/C (endpoint: median survival time, dose: 0.2 mg/kg/injection, schedule: Q04DX003 (ip), vehicle: saline): 107 % of control
- T/C (endpoint: median survival time, dose: 0.25 mg/kg/injection, schedule: Q01DX009 (ip), vehicle: Klucel (hydroxypropylcellulose) (HPC)): 102 % of control
- T/C (endpoint: median survival time, dose: 0.25 mg/kg/injection, schedule: Q01DX009 (ip), vehicle: saline): 109 % of control
- T/C (endpoint: median survival time, dose: 0.25 mg/kg/injection, schedule: Q01DX009 (ip), vehicle: water): 115 % of control
- T/C (endpoint: median survival time, dose: 0.4 mg/kg/injection, schedule: Q01DX001 (ip), vehicle: saline): 113 % of control
- T/C (endpoint: median survival time, dose: 0.4 mg/kg/injection, schedule: Q01DX009 (ip), vehicle: saline): 124 % of control
- T/C (endpoint: median survival time, dose: 0.4 mg/kg/injection, schedule: Q04DX003 (ip), vehicle: saline): 109 % of control
- T/C (endpoint: median survival time, dose: 0.5 mg/kg/injection, schedule: Q01DX009 (ip), vehicle: Klucel (hydroxypropylcellulose) (HPC)): 104 % of control
- T/C (endpoint: median survival time, dose: 0.5 mg/kg/injection, schedule: Q01DX009 (ip), vehicle: saline): 118 % of control
- T/C (endpoint: median survival time, dose: 0.75 mg/kg/injection, schedule: Q01DX001 (ip), vehicle: saline): 115 % of control
- T/C (endpoint: median survival time, dose: 0.8 mg/kg/injection, schedule: Q01DX001 (ip), vehicle: saline): 112 % of control
- T/C (endpoint: median survival time, dose: 0.8 mg/kg/injection, schedule: Q04DX003 (ip), vehicle: saline): 124 % of control
- T/C (endpoint: median survival time, dose: 1.0 mg/kg/injection, schedule: Q01DX009 (ip), vehicle: Klucel (hydroxypropylcellulose) (HPC)): 116 % of control
- T/C (endpoint: median survival time, dose: 1.6 mg/kg/injection, schedule: Q01DX009 (ip), vehicle: saline): 165 % of control
- T/C (endpoint: median survival time, dose: 1.8 mg/kg/injection, schedule: Q01DX001 (ip), vehicle: water): 116 % of control and 102 % of control and 105 % of control
- T/C (endpoint: median survival time, dose: 2.4 mg/kg/injection, schedule: Q03DX003 (ip), vehicle: saline): 118 % of control and 203 % of control
- T/C (endpoint: median survival time, dose: 3.2 mg/kg/injection, schedule: Q01DX009 (ip), vehicle: saline): 96 % of control
- T/C (endpoint: median survival time, dose: 3.2 mg/kg/injection, schedule: Q04DX003 (ip), vehicle: saline): 168 % of control
- T/C (endpoint: median survival time, dose: 3.6 mg/kg/injection, schedule: Q01DX001 (ip), vehicle: saline): 155 % of control and 160 % of control
- T/C (endpoint: median survival time, dose: 4.0 mg/kg/injection, schedule: Q01DX009 (ip), vehicle: saline): 97 % of control
- T/C (endpoint: median survival time, dose: 4.8 mg/kg/injection, schedule: Q01DX001 (ip), vehicle: saline): 166 % of control
- T/C (endpoint: median survival time, dose: 4.8 mg/kg/injection, schedule: Q03DX003 (ip), vehicle: saline): 190 % of control
- T/C (endpoint: median survival time, dose: 5.0 mg/kg/injection, schedule: Q01DX001 (ip), vehicle: water): 113 % of control and 115 % of control
- T/C (endpoint: median survival time, dose: 5.4 mg/kg/injection, schedule: Q01DX001 (ip), vehicle: saline): 166 % of control
- T/C (endpoint: median survival time, dose: 6.0 mg/kg/injection, schedule: Q01DX009 (ip), vehicle: clinical formulation): 98 % of control
- T/C (endpoint: median survival time, dose: 6.4 mg/kg/injection, schedule: Q01DX001 (ip), vehicle: saline): 156 % of control
- T/C (endpoint: median survival time, dose: 8.0 mg/kg/injection, schedule: Q01DX001 (ip), vehicle: saline): 156 % of control and 172 % of control
- T/C (endpoint: median survival time, dose: 8.3 mg/kg/injection, schedule: Q01DX001 (ip), vehicle: water): 123 % of control
